Assay results from USRE42890E1, “Furazanobenzimidazoles” (Basilea Pharmaceutica AG, priority 2003, dated 2011).
Where two headings read alike, the source gives them in different places.

Experiments:
HeLa = experiment: MTS proliferation assay, HeLa; type: cell-based, human; settings: 72 h incubation, read-out: MTS proliferation assay IC 50 HeLa
Outline: (§1)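 Cells were seeded 24 h before treatment and exposed to compound at 10, 3, 1 and 0.3 μM final for 72 h at 37 °C, 7.5% CO2 in RPMI-1640 with 5% or 10% FCS. Viability was read by MTS reagent (3 h) as absorbance at 492 nm.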

Jurkat = experiment: MTS proliferation assay, Jurkat; type: cell-based, human; settings: 72 h incubation, read-out: MTS proliferation assay IC 50 Jurkat
Outline: as §1

HT1080 = experiment: MTS proliferation assay, HT1080; type: cell-based, human; settings: HT1080, 72 h incubation, read-out: MTS proliferation assay IC 50 HT1080
Outline: as §1

[1] = system: adherent cells or suspension cells; experiment: Hoechst 33342 nuclear staining (fraction of apoptotic nuclei); type: cell-based; set-up: key: 0 relating to no activity; 1 relating to weak activity comprising less than 70% of the cells; score 2 relating to strong activity comprising more than 70% of the cells
Jily = experiment: MTS proliferation assay, Jily; type: cell-based; settings: 72 h incubation, read-out: MTS proliferation assay IC 50 Jily
Outline: (§2)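 Cells in RPMI-1640 with 5% or 10% FCS, 2-mercaptoethanol and glutamine were seeded 24 h before treatment with compound at final 10, 3, 1 and 0.3 μM. After 72 h at 37° C and 7.5% CO2, MTS reagent was added for 3 h and absorbance read at 492 nm.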

MRC5 = experiment: MTS proliferation assay, MRC5; type: cell-based; settings: MRC5, 72 h incubation, read-out: MTS proliferation assay IC 50 MRC5
Outline: as §2

| Structure (SMILES) | IC50 (HeLa) [nM] | Hoechst 33342 nuclear staining score ([1]; H460, conc 0.01 μm) | Hoechst 33342 nuclear staining score ([1]; H460, conc 0.1 μm) | Hoechst 33342 nuclear staining score ([1]; H460, conc 1 μm) | Hoechst 33342 nuclear staining score ([1]; HeLa, conc 0.01 μm) | Hoechst 33342 nuclear staining score ([1]; HeLa, conc 0.1 μm) | Hoechst 33342 nuclear staining score ([1]; HeLa, conc 1 μm) | Hoechst 33342 nuclear staining score ([1]; Jily, conc 0.01 μm) | Hoechst 33342 nuclear staining score ([1]; Jily, conc 0.1 μm) | Hoechst 33342 nuclear staining score ([1]; Jily, conc 1 μm) | Hoechst 33342 nuclear staining score ([1]; MRC5, conc 0.01 μm) | Hoechst 33342 nuclear staining score ([1]; MRC5, conc 0.1 μm) | Hoechst 33342 nuclear staining score ([1]; MRC5, conc 1 μm) | Hoechst 33342 nuclear staining score ([1]; PBLs, conc 0.01 μm) | Hoechst 33342 nuclear staining score ([1]; PBLs, conc 0.1 μm) | Hoechst 33342 nuclear staining score ([1]; PBLs, conc 1 μm) | IC50 (Jily) [nM] | Hoechst 33342 nuclear staining score ([1]; Jurkat, conc 0.01 μm) | Hoechst 33342 nuclear staining score ([1]; Jurkat, conc 0.1 μm) | Hoechst 33342 nuclear staining score ([1]; Jurkat, conc 1 μm) | further results |
| --- | --- | --- | --- | --- | --- | --- | --- | --- | --- | --- | --- | --- | --- | --- | --- | --- | --- | --- | --- | --- | --- |
| Nc1nonc1-c1nc2ccccc2n1CC(=NO)c1cccc(Cl)c1 (mixture of isomers) [Example 36] | 10 to 100 | 0 | 0 | 0 | 0 | 0 | 0 | 0 | 0 | 0 | 0 | 0 | 0 | 0 | 0 | 0 | 10 to 100 | – | – | – | IC50 (Jurkat): 10 to 100 nM; IC50 (HT1080): 100 to 1000 nM; IC50 (MRC5): 100 to 1000 nM |
| N#CCCNc1nonc1-c1nc2ccccc2n1CC(=O)c1ccc([N+](=O)[O-])cc1 [Example 57] | 100 to 1000 | 0 | 0 | 0 | 0 | 0 | 2 (score 2 relating to strong activity comprising more than 70% of the cells) | 0 | 0 | 2 (score 2 relating to strong activity comprising more than 70% of the cells) | 0 | 0 | 2 (score 2 relating to strong activity comprising more than 70% of the cells) | 0 | 0 | 0 | 10 to 100 | 0 | 0 | 2 (score 2 relating to strong activity comprising more than 70% of the cells) | IC50 (Jurkat): 10 to 100 nM; IC50 (HT1080): 100 to 1000 nM; IC50 (MRC5): 100 to 1000 nM |
| Nc1nonc1-c1nc2ccccc2n1CC(=O)c1ccc(F)cc1 [Example 67] | 100 to 1000 | 0 | 0 | 2 (score 2 relating to strong activity comprising more than 70% of the cells) | 0 | 0 | 2 (score 2 relating to strong activity comprising more than 70% of the cells) | 0 | 2 (score 2 relating to strong activity comprising more than 70% of the cells) | 2 (score 2 relating to strong activity comprising more than 70% of the cells) | 0 | 0 | 1 (1 relating to weak activity comprising less than 70% of the cells) | 0 | 0 | 0 | 10 to 100 | 0 | 2 (score 2 relating to strong activity comprising more than 70% of the cells) | 2 (score 2 relating to strong activity comprising more than 70% of the cells) | IC50 (Jurkat): 100 to 1000 nM; IC50 (HT1080): 100 to 1000 nM; IC50 (MRC5): 100 to 1000 nM |
| Nc1nonc1-c1nc2ccccc2n1CC(=O)c1ccc([N+](=O)[O-])cc1 [Example 49] | > 1000 | 0 | 0 | 0 | 0 | 0 | 1 (1 relating to weak activity comprising less than 70% of the cells) | 0 | 0 | 1 (1 relating to weak activity comprising less than 70% of the cells) | 0 | 0 | 0 | 0 | 0 | 0 | 100 to 1000 | 0 | 0 | 2 (score 2 relating to strong activity comprising more than 70% of the cells) | IC50 (Jurkat): 100 to 1000 nM; IC50 (HT1080): > 1000 nM; IC50 (MRC5): > 1000 nM |
| COCOc1ccc(C(=O)Cn2c(-c3nonc3N)nc3ccccc32)cc1OC [Example 15, 4-[1-(3-Methoxy-4-methoxymethoxy-phenacyl)-1H-benzimidazol-2-yl]-furazan-3-ylamine] | – | 2 (score 2 relating to strong activity comprising more than 70% of the cells) | 2 (score 2 relating to strong activity comprising more than 70% of the cells) | 2 (score 2 relating to strong activity comprising more than 70% of the cells) | 1 (1 relating to weak activity comprising less than 70% of the cells) | 2 (score 2 relating to strong activity comprising more than 70% of the cells) | 2 (score 2 relating to strong activity comprising more than 70% of the cells) | 2 (score 2 relating to strong activity comprising more than 70% of the cells) | 2 (score 2 relating to strong activity comprising more than 70% of the cells) | 2 (score 2 relating to strong activity comprising more than 70% of the cells) | 0 | 1 (1 relating to weak activity comprising less than 70% of the cells) | 2 (score 2 relating to strong activity comprising more than 70% of the cells) | 0 | 0 | 0 | < 10 | 2 (score 2 relating to strong activity comprising more than 70% of the cells) | 2 (score 2 relating to strong activity comprising more than 70% of the cells) | 2 (score 2 relating to strong activity comprising more than 70% of the cells) | IC50 (HeLa; Homo sapiens): 10 to 100 nM; IC50 (Jurkat; Homo sapiens): < 10 nM; IC50 (HT1080; Homo sapiens, HT-1080): < 10 nM; IC50 (MRC5; Homo sapiens): < 10 nM |
| Nc1ccc(C(=O)Cn2c(-c3nonc3NCCC(=O)O)nc3ccccc32)cc1 [Example 13, 4-[1-(4-Aminophenacyl)-1H-benzimidazol-2-yl]-furazan-3-yl-N-(2-carboxyethyl)-amine] | – | 0 | 0 | 2 (score 2 relating to strong activity comprising more than 70% of the cells) | 0 | 0 | 2 (score 2 relating to strong activity comprising more than 70% of the cells) | 0 | 0 | 2 (score 2 relating to strong activity comprising more than 70% of the cells) | 0 | 0 | 2 (score 2 relating to strong activity comprising more than 70% of the cells) | 0 | 0 | 0 | 100 to 1000 | 0 | 0 | 2 (score 2 relating to strong activity comprising more than 70% of the cells) | IC50 (HeLa; Homo sapiens): 100 to 1000 nM; IC50 (Jurkat; Homo sapiens): 100 to 1000 nM; IC50 (HT1080; Homo sapiens, HT-1080): 100 to 1000 nM; IC50 (MRC5; Homo sapiens): 100 to 1000 nM |
| Nc1nonc1-c1nc2ccccc2n1COc1ccc(C(F)(F)F)cc1 [Example 91] | 100 to 1000 | – | – | – | 0 | 0 | 0 | 0 | 0 | 2 (score 2 relating to strong activity comprising more than 70% of the cells) | 0 | 0 | 0 | 0 | 0 | 0 | 100 to 1000 | 0 | 0 | 2 (score 2 relating to strong activity comprising more than 70% of the cells) | IC50 (Jurkat): 100 to 1000 nM; IC50 (HT1080): 100 to 1000 nM; IC50 (MRC5): 100 to 1000 nM |
